Results published in ChEMBL document CHEMBL1130361, “Homology modeling of the ampa receptor: A quantitative predictive tool for the design of novel antagonists” (Bioorg Med Chem Lett, 1997).

Target: Glutamate receptor ionotropic AMPA (Homo sapiens, UniProt P42261+P42262+P42263+P48058)
Description: Binding affinity against AMPA receptor using [3H]- AMPA radioligand

SMILES | IC50 [nM]
CN1Cc2c(S(=O)(=O)N(C)C)cc3c(N=O)c(O)[nH]c3c2C1 | 700
Oc1nc2ccc3c(c2nc1O)CCCN3 | 24000
CC(C)N1CCc2c([N+](=O)[O-])cc3[nH]c(=O)c(=O)[nH]c3c2C1 | 153
C[C@@]12CC[C@H](CSc3nn[nH]n3)C[C@]1(C)CC(C(=O)O)NC2 (some centres not stated) | 580
CN1CCc2c([N+](=O)[O-])cc3[nH]c(=O)c(=O)[nH]c3c2C1 | 80
C[C@@]12CC[C@H](CCc3nnn[nH]3)C[C@]1(C)CC(C(=O)O)NC2 (some centres not stated) | 1350
COC(=O)c1cc2nc(O)c(O)nc2c2c1CN(C)CC2 | 44000
CN1CCc2c(-c3ccc([N+](=O)[O-])cc3)cc3c(c2C1)NC(=O)/C3=N\O | 150

Next, values leading:

IC50 [nM] | SMILES
630 | C[C@@]12CC[C@H](CS(=O)(=O)c3nc[nH]n3)C[C@]1(C)CC(C(=O)O)NC2 (some centres not stated)
2000 | O=[N+]([O-])c1ccc2nc(O)c(O)nc2c1
166 | CCN1CCc2c([N+](=O)[O-])cc3[nH]c(=O)c(=O)[nH]c3c2C1
7200 | O=C1Nc2c(ccc3c2CCCC3)/C1=N/O
